Assay results as given in ChEMBL document CHEMBL1287800, “Pyridylmethylthio derivatives as VEGF inhibitors. Part 1” (Bioorg Med Chem Lett, 2010).

Test system: HUVEC
Experiment: Inhibition of VEGF-induced HUVEC proliferation treated 1 hr before VEGF challenge measured 3 days by WST-8 assay
Type: functional, cell-based
Settings: Homo sapiens

`Clc1ccc(Nc2nnc(Cc3ccncc3)c3ccccc23)cc1` [VATALANIB] showed an IC50 of 33 nM.
